# Assay results taken from PubChem BioAssay (NCI).
#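 These data come from cells grown in 96-well plates and exposed to compound for 48 hours at five concentrations. TGI denotes the concentration required for complete inhibition of growth.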
# Test system: BT-549 breast
# Test: inhibition of tumour cell growth, NCI panel, 48 h
row,SMILES,TGI
1,COC(=O)c1cc2c(cc1CC(Cc1ccc3c(c1)CCCC3)C(=O)OC)CCCC2 (stereo not given),> 100 µM
2,COc1cc(-c2nc3ccccn3c2/N=C/c2cc(Br)cc(Br)c2O)ccc1O,53.3 µM
3,CCCCCCCCCCCC(=O)OCC(C[As](=O)(O)O)OC(=O)CCCCCCCCCCC (stereo not given),23.3 µM
4,CCC(=O)Oc1ccc2c(c1)c(=O)c1c(NCCCN(C)C)ccc3nnn2c31,24.7 µM
5,CC(C)=CCC(O)[C@](C)(O)[C@H]1[C@H](O)C[C@@]2(C)[C@@H]3CCc4cc(O)c(OC5OC(CO)C(O)C(O)C5O)cc4C3(C)C(=O)C[C@]12C (stereo not given in full),> 100 µM
6,Cc1ccc(S(=O)(=O)N/N=C2/CCCOC2)cc1,> 100 µM
7,C[N+]1(C)CCc2cc(O)c(O)cc2C1Cc1ccc(O)c(O)c1 (stereo not given),> 100 µM

# Test system: HCT-116 colon
# Test: inhibition of tumour cell growth, NCI panel, 48 h
row,SMILES,TGI
1,COC(=O)c1cc2c(cc1CC(Cc1ccc3c(c1)CCCC3)C(=O)OC)CCCC2 (stereo not given),> 100 µM
2,COc1cc(-c2nc3ccccn3c2/N=C/c2cc(Br)cc(Br)c2O)ccc1O,34.7 µM
3,CCCCCCCCCCCC(=O)OCC(C[As](=O)(O)O)OC(=O)CCCCCCCCCCC (stereo not given),18.3 µM
4,CCC(=O)Oc1ccc2c(c1)c(=O)c1c(NCCCN(C)C)ccc3nnn2c31,14.4 µM
5,CC(C)=CCC(O)[C@](C)(O)[C@H]1[C@H](O)C[C@@]2(C)[C@@H]3CCc4cc(O)c(OC5OC(CO)C(O)C(O)C5O)cc4C3(C)C(=O)C[C@]12C (stereo not given in full),> 100 µM
6,Cc1ccc(S(=O)(=O)N/N=C2/CCCOC2)cc1,> 100 µM
7,C[N+]1(C)CCc2cc(O)c(O)cc2C1Cc1ccc(O)c(O)c1 (stereo not given),47.8 µM

# Test system: IGROV1 ovarian
# Test: inhibition of tumour cell growth, NCI panel, 48 h
row,SMILES,TGI
1,COC(=O)c1cc2c(cc1CC(Cc1ccc3c(c1)CCCC3)C(=O)OC)CCCC2 (stereo not given),> 100 µM
2,COc1cc(-c2nc3ccccn3c2/N=C/c2cc(Br)cc(Br)c2O)ccc1O,49.9 µM
3,CCCCCCCCCCCC(=O)OCC(C[As](=O)(O)O)OC(=O)CCCCCCCCCCC (stereo not given),3.5 µM
4,CCC(=O)Oc1ccc2c(c1)c(=O)c1c(NCCCN(C)C)ccc3nnn2c31,13.9 µM
5,CC(C)=CCC(O)[C@](C)(O)[C@H]1[C@H](O)C[C@@]2(C)[C@@H]3CCc4cc(O)c(OC5OC(CO)C(O)C(O)C5O)cc4C3(C)C(=O)C[C@]12C (stereo not given in full),> 100 µM
6,Cc1ccc(S(=O)(=O)N/N=C2/CCCOC2)cc1,> 100 µM
7,C[N+]1(C)CCc2cc(O)c(O)cc2C1Cc1ccc(O)c(O)c1 (stereo not given),> 100 µM

# Test system: M14 melanoma
# Test: inhibition of tumour cell growth, NCI panel, 48 h
row,SMILES,TGI
1,COC(=O)c1cc2c(cc1CC(Cc1ccc3c(c1)CCCC3)C(=O)OC)CCCC2 (stereo not given),> 100 µM
2,COc1cc(-c2nc3ccccn3c2/N=C/c2cc(Br)cc(Br)c2O)ccc1O,38.5 µM
3,CCCCCCCCCCCC(=O)OCC(C[As](=O)(O)O)OC(=O)CCCCCCCCCCC (stereo not given),4.48 µM
4,CCC(=O)Oc1ccc2c(c1)c(=O)c1c(NCCCN(C)C)ccc3nnn2c31,20.1 µM
5,CC(C)=CCC(O)[C@](C)(O)[C@H]1[C@H](O)C[C@@]2(C)[C@@H]3CCc4cc(O)c(OC5OC(CO)C(O)C(O)C5O)cc4C3(C)C(=O)C[C@]12C (stereo not given in full),> 100 µM
6,Cc1ccc(S(=O)(=O)N/N=C2/CCCOC2)cc1,> 100 µM
7,C[N+]1(C)CCc2cc(O)c(O)cc2C1Cc1ccc(O)c(O)c1 (stereo not given),> 100 µM

# Test system: MALME-3M melanoma
# Test: inhibition of tumour cell growth, NCI panel, 48 h
row,SMILES,TGI
1,COC(=O)c1cc2c(cc1CC(Cc1ccc3c(c1)CCCC3)C(=O)OC)CCCC2 (stereo not given),> 100 µM
2,COc1cc(-c2nc3ccccn3c2/N=C/c2cc(Br)cc(Br)c2O)ccc1O,57.8 µM
3,CCCCCCCCCCCC(=O)OCC(C[As](=O)(O)O)OC(=O)CCCCCCCCCCC (stereo not given),6.49 µM
4,CCC(=O)Oc1ccc2c(c1)c(=O)c1c(NCCCN(C)C)ccc3nnn2c31,17 µM
5,CC(C)=CCC(O)[C@](C)(O)[C@H]1[C@H](O)C[C@@]2(C)[C@@H]3CCc4cc(O)c(OC5OC(CO)C(O)C(O)C5O)cc4C3(C)C(=O)C[C@]12C (stereo not given in full),> 100 µM
6,Cc1ccc(S(=O)(=O)N/N=C2/CCCOC2)cc1,> 100 µM
7,C[N+]1(C)CCc2cc(O)c(O)cc2C1Cc1ccc(O)c(O)c1 (stereo not given),91.4 µM

# Test system: MCF7 breast
# Test: inhibition of tumour cell growth, NCI panel, 48 h
row,SMILES,TGI
1,COC(=O)c1cc2c(cc1CC(Cc1ccc3c(c1)CCCC3)C(=O)OC)CCCC2 (stereo not given),> 100 µM
2,COc1cc(-c2nc3ccccn3c2/N=C/c2cc(Br)cc(Br)c2O)ccc1O,53.8 µM
3,CCCCCCCCCCCC(=O)OCC(C[As](=O)(O)O)OC(=O)CCCCCCCCCCC (stereo not given),13 µM
4,CCC(=O)Oc1ccc2c(c1)c(=O)c1c(NCCCN(C)C)ccc3nnn2c31,12.7 µM
5,CC(C)=CCC(O)[C@](C)(O)[C@H]1[C@H](O)C[C@@]2(C)[C@@H]3CCc4cc(O)c(OC5OC(CO)C(O)C(O)C5O)cc4C3(C)C(=O)C[C@]12C (stereo not given in full),> 100 µM
6,Cc1ccc(S(=O)(=O)N/N=C2/CCCOC2)cc1,> 100 µM
7,C[N+]1(C)CCc2cc(O)c(O)cc2C1Cc1ccc(O)c(O)c1 (stereo not given),43.3 µM

# Test system: MDA-MB-435
# Test: inhibition of tumour cell growth, NCI panel, 48 h
row,SMILES,TGI
1,COC(=O)c1cc2c(cc1CC(Cc1ccc3c(c1)CCCC3)C(=O)OC)CCCC2 (stereo not given),> 100 µM
2,COc1cc(-c2nc3ccccn3c2/N=C/c2cc(Br)cc(Br)c2O)ccc1O,72 µM
3,CCCCCCCCCCCC(=O)OCC(C[As](=O)(O)O)OC(=O)CCCCCCCCCCC (stereo not given),9.91 µM
4,CCC(=O)Oc1ccc2c(c1)c(=O)c1c(NCCCN(C)C)ccc3nnn2c31,18.7 µM
5,CC(C)=CCC(O)[C@](C)(O)[C@H]1[C@H](O)C[C@@]2(C)[C@@H]3CCc4cc(O)c(OC5OC(CO)C(O)C(O)C5O)cc4C3(C)C(=O)C[C@]12C (stereo not given in full),> 100 µM
6,Cc1ccc(S(=O)(=O)N/N=C2/CCCOC2)cc1,> 100 µM
7,C[N+]1(C)CCc2cc(O)c(O)cc2C1Cc1ccc(O)c(O)c1 (stereo not given),39.7 µM

# Test system: MDA-N
# Test: inhibition of tumour cell growth, NCI panel, 48 h
row,SMILES,TGI
1,COC(=O)c1cc2c(cc1CC(Cc1ccc3c(c1)CCCC3)C(=O)OC)CCCC2 (stereo not given),> 100 µM
2,COc1cc(-c2nc3ccccn3c2/N=C/c2cc(Br)cc(Br)c2O)ccc1O,59 µM
3,CCCCCCCCCCCC(=O)OCC(C[As](=O)(O)O)OC(=O)CCCCCCCCCCC (stereo not given),13 µM
4,CCC(=O)Oc1ccc2c(c1)c(=O)c1c(NCCCN(C)C)ccc3nnn2c31,18.4 µM
5,CC(C)=CCC(O)[C@](C)(O)[C@H]1[C@H](O)C[C@@]2(C)[C@@H]3CCc4cc(O)c(OC5OC(CO)C(O)C(O)C5O)cc4C3(C)C(=O)C[C@]12C (stereo not given in full),> 100 µM
6,Cc1ccc(S(=O)(=O)N/N=C2/CCCOC2)cc1,> 100 µM
7,C[N+]1(C)CCc2cc(O)c(O)cc2C1Cc1ccc(O)c(O)c1 (stereo not given),89.1 µM

# Test system: NCI-H226 lung
# Test: inhibition of tumour cell growth, NCI panel, 48 h
row,SMILES,TGI
1,COC(=O)c1cc2c(cc1CC(Cc1ccc3c(c1)CCCC3)C(=O)OC)CCCC2 (stereo not given),> 100 µM
2,COc1cc(-c2nc3ccccn3c2/N=C/c2cc(Br)cc(Br)c2O)ccc1O,70.9 µM
3,CCCCCCCCCCCC(=O)OCC(C[As](=O)(O)O)OC(=O)CCCCCCCCCCC (stereo not given),42.9 µM
4,CCC(=O)Oc1ccc2c(c1)c(=O)c1c(NCCCN(C)C)ccc3nnn2c31,11.8 µM
5,CC(C)=CCC(O)[C@](C)(O)[C@H]1[C@H](O)C[C@@]2(C)[C@@H]3CCc4cc(O)c(OC5OC(CO)C(O)C(O)C5O)cc4C3(C)C(=O)C[C@]12C (stereo not given in full),> 100 µM
6,Cc1ccc(S(=O)(=O)N/N=C2/CCCOC2)cc1,> 100 µM
7,C[N+]1(C)CCc2cc(O)c(O)cc2C1Cc1ccc(O)c(O)c1 (stereo not given),> 100 µM

# Test system: NCI-H23 lung
# Test: inhibition of tumour cell growth, NCI panel, 48 h
row,SMILES,TGI
1,COC(=O)c1cc2c(cc1CC(Cc1ccc3c(c1)CCCC3)C(=O)OC)CCCC2 (stereo not given),> 100 µM
2,COc1cc(-c2nc3ccccn3c2/N=C/c2cc(Br)cc(Br)c2O)ccc1O,67.9 µM
3,CCCCCCCCCCCC(=O)OCC(C[As](=O)(O)O)OC(=O)CCCCCCCCCCC (stereo not given),18 µM
4,CCC(=O)Oc1ccc2c(c1)c(=O)c1c(NCCCN(C)C)ccc3nnn2c31,20.3 µM
5,CC(C)=CCC(O)[C@](C)(O)[C@H]1[C@H](O)C[C@@]2(C)[C@@H]3CCc4cc(O)c(OC5OC(CO)C(O)C(O)C5O)cc4C3(C)C(=O)C[C@]12C (stereo not given in full),> 100 µM
6,Cc1ccc(S(=O)(=O)N/N=C2/CCCOC2)cc1,> 100 µM
7,C[N+]1(C)CCc2cc(O)c(O)cc2C1Cc1ccc(O)c(O)c1 (stereo not given),> 100 µM
